Legend:
Puccinia recondita = assay: Action against Puccinia recondita on wheat (wheat leaf rust); assay type: in vivo; conditions: 63 ppm; wheat "Frühgold"; sprayed the day after infection; 7 days; untreated plants 75%
Nephotettix cincticeps = assay: Action against Nephotettix cincticeps (green rice leafhopper), contact action; assay type: in vivo; conditions: treated filter paper dishes, adult leafhoppers, mortality after 24 hours
Source text: The active compounds were formulated
a. as a 0.1% solution in acetone or
b. as a 10% emulsion in a mixture of 70% by weight of cyclohexanone, 20% by weight of Nekanil® LN (Lutensol® AP6, wetting agent having emulsifying and dispersing action based on ethoxylated alkylphenols) and 10% by weight of Wettol® EM (nonionic emulsifier based on ethoxylated castor oil)
and diluted in the case of a. with acetone and in the case of b. with water to give the desired concentration.
After the experiments had ended, in each case the lowest concentration was determined at which the compounds still caused an 80 to 100% inhibition or mortality in comparison with untreated control experiments (critical or minimal concentration).
Filter paper dishes (Ø 9 cm) were treated with 1 ml of aqueous preparations of active compounds and subsequently populated with five adult leafhoppers. After 24 hours, the mortality was determined.

SMILES | infection (extent of rust fungus development on leaves) (Puccinia recondita) | critical concentration (lowest concentration still causing 80 to 100% inhibition or mortality) (Nephotettix cincticeps)
CNC(=O)/C(=N/OC)c1ccccc1COc1ncc(C(F)(F)F)cc1F [I-1, α-anti-methoxyimino-N-methyl-2-(3-fluoro-5-trifluoromethyl-2-pyridyloxy)methylphenyl-acetamide] | no infection | –
CNC(=O)/C(=N/OC)c1ccccc1COc1ncc(C(F)(F)F)cc1C [I-2, α-anti-methoxyimino-N-methyl-2-(3-methyl-5-trifluoromethyl-2-pyridyloxy)methyl-phenylacetamide] | no infection | 0.2 mg
CNC(=O)/C(=N/OC)c1ccccc1COc1nc(Cl)ccc1C(F)(F)F [I-3] | no infection | –
CNC(=O)/C(=N/OC)c1ccccc1COc1nc(Cl)c(C(F)(F)F)cc1Cl [I-6] | no infection | –
CNC(=O)/C(=N/OC)c1ccccc1COc1ncc(C(F)F)cc1Cl [I-8] | no infection | –

Reference: US6372766B1, “Substituted 2-(2′-pyridyloxy)phenylacetamides, as fungicides and pesticides” (priority 1997, dated 2002)
